Measurements taken from US10532065B2, “Bisphosphonic acid derivative and application for same” (NAGASAKI UNIVERSITY, priority 2014, dated 2020).
Where “and” joins values, the source holds several entries; their conditions need not be identical. Equal entries are not always repeated. Where two headings read alike, the source gives them in different places.

Legend:
Assay type in all cases: cell-based
[1] = test system: RAMOS-RA1 cells; test: RAMOS-RA1 tumor cell growth inhibition (CellTiterGlo); details: PAMOS-RA1 (so in the source), Burkitt's lymphoma, 4 days culture
Method: (§2) To quantitatively study an action of compound 7, which is a bisphosphonic acid POM ester derivative, on various hematologic tumor-derived lymphoma and myeloidic leukemia cells, the concentration of a compound that inhibits cell proliferation to half was calculated as IC50, and a direct antitumor effect was studied from the value thereof. […] First, MOLT-4, THP-1, SCC-3, PEER, RAMOS-RA1, C1R, MOLT-3, Raji, U937, K562, Daudi were cultured in RPMI1640 medium supplemented with 10% calf serum at 37° C. under 5% CO2 atmosphere while maintaining log phase. The cells were recovered, and centrifuged at 1,700 rpm, 4° C. for 5 min. The supernatant was removed, and suspended in RPMI1640 medium supplemented with 10% calf serum to 500 cells/50 μl. On the other hand, 10 mM stock solution of compound 7 which is a bisphosphonic acid POM ester derivative was serially diluted 2-fold from 200 μM. In addition, 10 mM stock solution of compound 14 which is bisphosphonic acid was serially diluted 2-fold from 2 mM. Then, the cell suspension (50 μl, 500 cells) and the compound solution (50 μl) were added to a flat-bottomed 96 well plate and cultured at 37° C. under 5% CO2 atmosphere for 4 days. Then, 100 μl of CellTiterGlo solution was added, and the mixture was pipetted 10 strokes, and transferred to a 96 well OptiPlate. […]

[2] = test system: RAMOS-RA1 cells / γδ T cells; test: TNF-α production from γδ T cells stimulated by compound-pretreated RAMOS-RA1 cells; details: RAMOS-RA1, Burkitt's lymphoma, 4 hr pretreatment, 16 hr with γδ T cells, read-out: TNF-α50
Method: (§1) Since the above-mentioned results of Experimental Example confirm that the activity of bisphosphonic acids becomes high by POM esterification in various tumor cells, the TNF-α production induction ability of more number of tumor cells was quantitatively studied. […] Thereto was added a solution (500 μl) of compound 7 obtained by serially diluting 10 mM stock solution 10-fold from 20 μM, or a solution (500 μl) of compound 14 obtained by serially diluting 10 mM stock solution 10-fold from 200 μM, and the cells were suspended well. These conical tubes were stood at 37° C. for 4 hr, and the cells were washed 3 times with 5 ml of culture medium. To these cells was added 500 μl of medium, and the cells were suspended well. […] The cell culture medium was suspended well, and the plate was centrifuged at 1,700 rpm, 4° C. for 2 min and the culture supernatant (150 μl) was taken and placed in another round-bottomed 96 well plate. The plate was frozen at −80° C. overnight, left standing at room temperature for 1 hr, stirred well and 100 μl thereof was subjected to ELISA of TNF-α. The content of TNF-α was calculated from the analytical curve of TNF-α. These were performed in triplicate, and TNF-α50 of bisphosphonic acid POM ester derivative (compound 7) and bisphosphonic acid (compound 14) was calculated and summarized in Table 8.

[3] = test system: MKN1 cells / γδ T cells; test: TNF-α production from γδ T cells stimulated by compound-pretreated MKN1 cells; details: MKN1, Gastric cancer, 4 hr pretreatment, 16 hr with γδ T cells, read-out: TNF-α50
Method: as §1

[4] = test system: U937 cells / γδ T cells; test: TNF-α production from γδ T cells stimulated by compound-pretreated U937 cells; details: U937, Histiocytic lymphoma, 4 hr pretreatment, 16 hr with γδ T cells, read-out: TNF-α50
Method: as §1

[5] = test system: OST cells / γδ T cells; test: TNF-α production from γδ T cells stimulated by compound-pretreated OST cells; details: Osteosarcoma, 4 hr pretreatment, 16 hr with γδ T cells, read-out: TNF-α50
Method: as §1

[6] = test system: C1R cells / γδ T cells; test: TNF-α production from γδ T cells stimulated by compound-pretreated C1R cells; details: B cell lymphoma, 4 hr pretreatment, 16 hr with γδ T cells, read-out: TNF-α50
Method: as §1

[7] = test system: EJ-1 cells; test: EJ-1 cell growth inhibition (direct antitumor action, CellTiterGlo); details: for IC50: EJ-1 (bladder cancer) growth inhibition, 4 days culture
In short: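 EJ-1 cells run as in the earlier U937 protocol, with cells recovered by conventional EDTA-trypsin treatment. POM ester derivatives were tested side by side with the parent bisphosphonic acids for direct growth inhibition, read by CellTiterGlo.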

[8] = test system: U937 cells; test: U937 cell growth inhibition (direct antitumor action, CellTiterGlo); details: for IC50: U937 cell growth inhibition, 4 days culture
Method: The direct antitumor action of bisphosphonic acid POM ester and bisphosphonic acid was studied by comparison using U937.
The direct antitumor action of various bisphosphonic acid POM esters was studied by comparison using U937 and EJ-1. The measurement was performed according to Experimental Example 2 and Experimental Example 4.

[9] = test system: MRK-nu-1 cells / γδ T cells; test: TNF-α production from γδ T cells stimulated by compound-pretreated MRK-nu-1 cells; details: MRK-nu-1, Mammary carcinoma, 4 hr pretreatment, 16 hr with γδ T cells, read-out: TNF-α50
Method: as §1

[10] = test system: MOLT-4 cells; test: MOLT-4 tumor cell growth inhibition (CellTiterGlo); details: MOLT-4, Acute lymphoblastic leukemia, 4 days culture
Method: as §2

[11] = test system: MKN1 cells; test: MKN1 tumor cell growth inhibition (CellTiterGlo); details: MKN1, Gastric cancer, 4 days culture
Method: (§3) First, EJ-1, 786-0, MKN1, OST, PC-3, PK-1, LK-2, G-361, TFK-1, MRK-nu-1 were cultured in RPMI1640 medium supplemented with 10% calf serum at 37° C. under 5% CO2 atmosphere while maintaining log phase. The cells were recovered by a conventional EDTA trypsin treatment, and centrifuged at 1,700 rpm, 4° C. for 5 min. The supernatant was removed, and suspended in RPMI1640 medium supplemented with 10% calf serum to 500 cells/50 μl. On the other hand, 10 mM stock solution of compound 7 which is a bisphosphonic acid POM ester derivative was serially diluted 2-fold from 200 pM. In addition, 10 mM stock solution of compound 14 which is bisphosphonic acid was serially diluted 2-fold from 2 mM. Then, the cell suspension (50 μl, 500 cells) and the compound solution (50 μl) were added to a flat-bottomed 96 well plate and cultured at 37° C. under 5% CO2 atmosphere for 4 days. Then, 100 μl of CellTiterGlo solution was added, and the mixture was pipetted 10 strokes, and transferred to a 96 well OptiPlate. After standing at room temperature for 10 min, the luminescence was measured by a luminometer and IC50 value was calculated.

[12] = test system: K562 cells / γδ T cells; test: TNF-α production from γδ T cells stimulated by compound-pretreated K562 cells; details: K562, Erythrocytoma, 4 hr pretreatment, 16 hr with γδ T cells, read-out: TNF-α50
Method: as §1

[13] = test system: 786-0 cells; test: 786-0 tumor cell growth inhibition (CellTiterGlo); details: 786-0, Renal cell carcinoma, 4 days culture
Method: as §3

[14] = test system: OST cells; test: OST tumor cell growth inhibition (CellTiterGlo); details: Osteosarcoma, 4 days culture
Method: as §3

[15] = test system: MRK-nu-1 cells; test: MRK-nu-1 tumor cell growth inhibition (CellTiterGlo); details: MRK-nu-1, Mammary carcinoma, 4 days culture
Method: as §3

[16] = test system: SCC-3 cells; test: SCC-3 tumor cell growth inhibition (CellTiterGlo); details: SCC-3, Non-Hodgkin's lymphoma, 4 days culture
Method: as §2

[17] = test system: PK1 cells / γδ T cells; test: TNF-α production from γδ T cells stimulated by compound-pretreated PK1 cells; details: PK1, Pancreatic cancer, 4 hr pretreatment, 16 hr with γδ T cells, read-out: TNF-α50
Method: as §1

[18] = test system: C1R cells; test: C1R tumor cell growth inhibition (CellTiterGlo); details: B cell lymphoma, 4 days culture
Method: as §2

[19] = test system: THP-1 cells / γδ T cells; test: TNF-α production from γδ T cells stimulated by compound-pretreated THP-1 cells; details: THP-1, Acute monocytic leukemia, 4 hr pretreatment, 16 hr with γδ T cells, read-out: TNF-α50
Method: as §1

[20] = test system: LK-2 cells; test: LK-2 tumor cell growth inhibition (CellTiterGlo); details: LK-2, Lung cancer, 4 days culture
Method: as §3

[21] = test system: MOLT-3 cells; test: MOLT-3 tumor cell growth inhibition (CellTiterGlo); details: MOLT-3, Acute lymphoblastic leukemia, 4 days culture
Method: as §2

[22] = test system: Daudi cells; test: Daudi tumor cell growth inhibition (CellTiterGlo); details: Burkitt's lymphoma, 4 days culture
Method: as §2

[23] = test system: MOLT-4 cells / γδ T cells; test: TNF-α production from γδ T cells stimulated by compound-pretreated MOLT-4 cells; details: MOLT-4, Acute lymphoblastic leukemia, 4 hr pretreatment, 16 hr with γδ T cells, read-out: TNF-α50
Method: as §1

CC(C)(C)C(=O)OCOP(=O)(OCOC(=O)C(C)(C)C)C(CNc1nccs1)P(=O)(OCOC(=O)C(C)(C)C)OCOC(=O)C(C)(C)C [Compound 7, tetrakispivaloyloxymethyl 2-(thiazol-2-ylamino) ethylidene-1,1-bisphosphonate] was tested, and the IC50 [1] was 110 nM, the EC50 [2] was 140 nM and the EC50 [3] was 560 nM. For the same compound, the EC50 [4] was 60 nM, the EC50 [5] was 600 nM and the EC50 [6] was 530 nM. The IC50 [7] was 26 nM, the “direct antitumor activity (in words)” value ([7]; EJ-1 growth inhibition) was “particularly high activity” and the IC50 [8] was 280 nM and 260 nM. The “direct antitumor activity (in words)” value ([8]; U937 growth inhibition) was “particularly high activity”, the EC50 [9] was 180 nM and the IC50 [10] was 160 nM. The IC50 [11] was 1200 nM, the EC50 [12] was 80 nM and the IC50 [13] was 880 nM. The IC50 [14] was 810 nM, the IC50 [15] was 740 nM and the IC50 [16] was 180 nM. It also gave an EC50 [17] of 450 nM, an IC50 [18] of 78 nM and an EC50 [19] of 300 nM. The IC50 [20] was 800 nM, the IC50 [21] was 130 nM and the IC50 [22] was 430 nM. It also gave an EC50 [23] of 59 nM.
O=P(O)(O)C(CNc1nccs1)P(=O)(O)O [Compound 14, 2-(thiazol-2-ylamino)ethylidene-1,1-bisphosphonic Acid, reference compound] showed an IC50 ([1]; 96 h) of 75000 nM, an EC50 ([2]; T-cell) of over 100000 nM and an EC50 ([3]; Homo sapiens, MKN-1) of 89000 nM. For the same compound, the EC50 ([4]; Homo sapiens, U-937) was over 100000 nM, the EC50 ([5]; T-cell) was over 100000 nM and the EC50 [6] was over 100000 nM. The IC50 ([7]; EJ1, 96 h) was 3700 nM, the IC50 ([8]; Homo sapiens, U-937, 96 h) was 26000 nM and the EC50 ([9]; Homo sapiens) was over 100000 nM. For the same compound, the IC50 ([10]; Homo sapiens, 96 h) was 120000 nM, the IC50 ([11]; Homo sapiens, MKN-1, 96 h) was 100000 nM and the EC50 ([12]; Homo sapiens) was over 100000 nM. For the same compound, the IC50 ([13]; Homo sapiens, 96 h) was 25000 nM, the IC50 ([14]; 96 h) was 66000 nM and the IC50 ([15]; Homo sapiens, 96 h) was 210000 nM. It also gave an IC50 ([16]; Homo sapiens, 96 h) of 66000 nM, an EC50 ([17]; PK-1) of over 100000 nM and an IC50 ([18]; 96 h) of 79000 nM. For the same compound, the EC50 ([19]; Homo sapiens) was over 100000 nM, the IC50 ([20]; Homo sapiens, 96 h) was 35000 nM and the IC50 ([21]; Homo sapiens, 96 h) was 180000 nM. It also gave an IC50 ([22]; Homo sapiens, 96 h) of 76000 nM and an EC50 ([23]; Homo sapiens) of over 100000 nM.
